Experimental findings from patent publication US10208040B2, “Fused imidazo-piperidine JAK inhibitors” (THERAVANCE BIOPHARMA R&D IP, LLC, priority 2017, dated 2019) are described below.

Assay [1] deals with IL-2/anti-CD3 stimulated STAT5 phosphorylation in CD4+ T cells. The assay can be described thus: Inhibition of IL-2 stimulated pSTAT5 in CD4+ T cells. In kind it is cell-based. The conditions noted are these: CD4+ T cells in human PBMCs; read-out: pIC50 inhibition of IL-2 stimulated pSTAT5 (converted). On the procedure: The potency of the test compound for inhibition of interleukin-2 (IL-2)/anti-CD3 stimulated STATS phosphorylation was measured in CD4-positive (CD4+) T cells in human peripheral blood mononuclear cells (PBMCs) isolated from human whole blood (Stanford Blood Center) using flow cytometry. Because IL-2 signals through JAK, this assay provides a measure of JAK cellular potency.
CD4+ T cells were identified using a […] (PE) conjugated anti-CD4 antibody (Clone RPA-T4, BD Biosciences), while an Alexa Fluor 647 conjugated anti-pSTAT5 antibody (pY694, Clone 47, BD Biosciences) was used to detect STATS phosphorylation.
(1) The protocol of Assay 7 paragraph (1) was followed with the exception that the cytokine stimulation with anti-CD3 was performed for 30 min instead of 24 h.
(2) After cytokine stimulation, cells were fixed with pre warmed fix solution (200 μL; BD Biosciences) for 10 min at 37° C., 5% CO2, washed twice with DPBS buffer (1 mL, Life Technologies), and resuspended in ice cold Perm Buffer III (1000 μL, BD Biosciences) for 30 min at 4° C. Cells were washed twice with 2% FBS in DPBS (FACS buffer), and then resuspended in FACS buffer (100 μL) containing anti-CD4 PE (1:50 dilution) and anti-CD3 […] (1:5 dilution) for 60 min at room temperature in the dark. After incubation, cells were washed twice in FACS buffer before being analyzed using a LSRII flow cytometer (BD Biosciences). To determine the inhibitory potency of test compounds in response to IL-2/anti-CD3, the median fluorescent intensity (MFI) of pSTAT5 was measured in CD4+ T cells. IC50 values were determined from analysis of the inhibition curves of MFI vs compound concentration. Data are expressed as pIC50 (negative decadic logarithm IC50) values.

Assay [2] concerns IL-2/anti-CD3 stimulated IFNγ in human PBMCs. Briefly: Inhibition of IL-2/anti-CD3 stimulated IFNγ in human PBMCs. In kind it is cell-based. The following applies: PBMC, read-out: pIC50 inhibition of IL-2/anti-CD3 stimulated IFNγ (converted). On the procedure: The potency of the test compound for inhibition of interleukin-2 (IL-2)/anti-CD3 stimulated interferon gamma (IFNγ) was measured in human peripheral blood mononuclear cells (PBMCs) isolated from human whole blood (Stanford Blood Center). Because IL-2 signals through JAK, this assay provides a measure of JAK cellular potency.
(1) Human peripheral blood mononuclear cells (PBMC) were isolated from human whole blood of healthy donors using a ficoll gradient. Cells were cultured in a 37° C., 5% CO2 humidified incubator in RPMI (Life Technologies) supplemented with 10% Heat Inactivated Fetal Bovine Serum (FBS, Life Technologies), 2 mM Glutamax (Life Technologies), 25 mM HEPES (Life Technologies) and 1× Pen/Strep (Life Technologies). Cells were seeded at 200,000 cells/well in media (50 μL) and cultured for 1 h. Compounds were serially diluted in DMSO and then diluted another 500-fold (to a 2× final assay concentration) in media. Test compounds (100 μL/well) were added to cells, and incubated at 37° C., 5% CO2 for 1 h, followed by the addition of IL-2 (R&D Systems; final concentration 100 ng/mL) and anti-CD3 (BD Biosciences; final concentration 1 μg/mL) in pre-warmed assay media (50 μL) for 24 h.
(2) After cytokine stimulation, cells were centrifuged at 500 g for 5 min and supernatants removed and frozen at −80° C. To determine the inhibitory potency of the test compound in response to IL-2/anti-CD3, supernatant IFNγ concentrations were measured via ELISA (R&D Systems). IC50 values were determined from analysis of the inhibition curves of concentration of IFNγ vs compound concentration. Data are expressed as pIC50 (negative decadic logarithm IC50) values.

The target in another assay is JAK2 (Homo sapiens (Human), UniProt O60674). The assay can be described thus: Biochemical JAK kinase assay (LanthaScreen), JAK2. On the procedure: A panel of four LanthaScreen JAK biochemical assays (JAK1, 2, 3 and Tyk2) were carried in a common kinase reaction buffer (50 mM HEPES, pH 7.5, 0.01% Brij-35, 10 mM MgCl2, and 1 mM EGTA). Recombinant GST-tagged JAK enzymes and a GFP-tagged STAT1 peptide substrate were obtained from Life Technologies.
Sequence of JAK2 (O60674 whole entry): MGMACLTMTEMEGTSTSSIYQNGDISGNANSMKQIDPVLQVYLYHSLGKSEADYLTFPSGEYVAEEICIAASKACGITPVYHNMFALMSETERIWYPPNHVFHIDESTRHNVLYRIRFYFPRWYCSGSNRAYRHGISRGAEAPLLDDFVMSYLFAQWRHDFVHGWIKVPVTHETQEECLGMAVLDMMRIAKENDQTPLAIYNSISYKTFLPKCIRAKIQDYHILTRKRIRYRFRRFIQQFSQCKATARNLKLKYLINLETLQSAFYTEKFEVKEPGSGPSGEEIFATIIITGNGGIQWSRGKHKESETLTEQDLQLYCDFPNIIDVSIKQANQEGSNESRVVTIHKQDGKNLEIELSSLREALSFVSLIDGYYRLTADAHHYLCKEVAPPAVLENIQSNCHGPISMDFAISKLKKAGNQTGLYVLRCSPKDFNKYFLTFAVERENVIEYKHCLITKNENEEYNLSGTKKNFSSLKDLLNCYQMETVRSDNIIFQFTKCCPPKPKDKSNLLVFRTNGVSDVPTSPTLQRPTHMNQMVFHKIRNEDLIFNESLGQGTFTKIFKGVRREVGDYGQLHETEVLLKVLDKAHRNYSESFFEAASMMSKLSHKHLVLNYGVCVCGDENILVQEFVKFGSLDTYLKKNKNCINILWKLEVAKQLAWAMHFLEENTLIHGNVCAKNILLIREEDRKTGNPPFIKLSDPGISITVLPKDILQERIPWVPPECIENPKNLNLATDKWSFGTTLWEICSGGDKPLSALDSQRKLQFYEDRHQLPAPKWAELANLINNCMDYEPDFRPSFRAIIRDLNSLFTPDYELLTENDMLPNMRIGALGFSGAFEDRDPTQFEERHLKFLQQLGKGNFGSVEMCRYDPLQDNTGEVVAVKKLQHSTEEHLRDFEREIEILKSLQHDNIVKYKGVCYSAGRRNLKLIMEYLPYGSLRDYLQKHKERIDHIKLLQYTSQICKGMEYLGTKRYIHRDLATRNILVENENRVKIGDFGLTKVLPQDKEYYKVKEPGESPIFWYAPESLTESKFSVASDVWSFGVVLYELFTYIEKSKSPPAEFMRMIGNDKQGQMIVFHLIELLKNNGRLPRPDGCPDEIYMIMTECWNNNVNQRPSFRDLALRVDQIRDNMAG
Serially diluted compounds were pre-incubated with each of the four JAK enzymes and the substrate in white 384-well microplates (Corning) at ambient temperature for 1 h. ATP was subsequently added to initiate the kinase reactions in 10 μL total volume, with 1% DMSO. […] The plates were allowed to incubate at ambient temperature for 1 h before being read on the EnVision reader (Perkin Elmer).
For dose-response analysis, percent inhibition data were plotted vs. compound concentrations, and IC50 values were determined from a 4-parameter robust fit model with the Prism software (GraphPad Software). Results were expressed as pIC50 (negative logarithm of IC50) and subsequently converted to pKi (negative logarithm of dissociation constant, Ki) using the Cheng-Prusoff equation.
(Time-resolved FRET reads energy transfer from a long-lived donor to a nearby acceptor.)

For orientation: Ki means the equilibrium dissociation constant of an inhibitor or competing ligand from its target.

Take `CCCN1Cc2[nH]c(-c3n[nH]c4cc(-c5cc(F)c(O)cc5CC)ccc34)nc2C[C@H]1C(=O)N1C[C@@H]2C[C@H]1CN2C` [Example 1, ((S)-2-(6-(2-ethyl-5-fluoro-4-hydroxyphenyl)-1H-indazol-3-yl)-5-propyl-4,5,6,7-tetrahydro-3H-imidazo[4,5-c]pyridin-6-yl)((1S,4S)-5-methyl-2,5-diazabicyclo-[2.2.1]heptan-2-yl)methanone]: the results for the IC50 in assay [1] and in assay [2] were ~50.1 nM and ~126 nM, respectively. In addition, at JAK2, the affinity, expressed as Ki, was 0.02 nM.
In the same order, the values of `CCc1cc(O)c(F)cc1-c1ccc2c(-c3nc4c([nH]3)CN(CC)[C@@H](C(=O)N3CCN(C(C)(C)C)CC3)C4)n[nH]c2c1` [Example 1-37] are ~7.94 nM, ~63.1 nM and 0.04 nM.
The matching figures for `CCc1cc(O)c(F)cc1-c1ccc2c(-c3nc4c([nH]3)CN(C(C)C)[C@H](C(=O)N3CC[C@H](N(C)C)C3)C4)n[nH]c2c1` [Example 3]: ~20 nM, ~63.1 nM and 0.02 nM.
